According to patent publication US7205387B2, “Recombinant polypeptide useful for neurotrophin receptor mediated gene delivery and as neurotrophin agonist” (Agency for Science, Technology and Research, priority 2003, dated 2007):
Bridge positions count the residues as written; N and C are the ends. Ends that are not written are not given here.

B1: SPKR4NL1-2: chimeric protein: (SPKR)4 DNA-binding domain, α-helical linker, targeting domain with loops 1 and 2 of NGF (aa 17–67), His10 tag (protein)
chain: MGHHHHHHHHHHSSGHIEGRHMSPKRSPKRSPKRSPKRGGTYLSEDELKAAEAAFKRHNPTGSCSVSVWVGDKTTATDIKGKEVMVLGEVNINNSVFKQYFFETKCRDPNPVDSG
modifications: SPKR4NL1-2

Tests used:
[1] = tested on: PC12 (TrkA and p75^NTR positive) cells; assay: Gene delivery in vitro (pCAGluc luciferase reporter), PC12 cells; type: cell-based, rat
Description: A PC12 (rat pheochromocytoma) cell line was obtained from ATCC (American Type Culture Collection, Manassas, Va., USA) and cultured in RPMI-1640 medium supplemented with 10% fetal bovine serum (FBS) and 5% horse serum. PC12 cells are known to express TrkA and p75^NTR receptors. A COS7 (African green monkey kidney fibroblast) cell line was obtained from ATCC and cultured in Dulbecco's modified Eagle's medium (DMEM) supplemented with 10% fetal bovine serum, 50 U/ml penicillin, and 50 μg/ml streptomycin. The cells were maintained in a 37° C., 5% CO2, humidified incubator.
To determine the transfection efficiencies of our nucleic acid delivery systems, we employ a reporter plasmid, pCAGluc (a gift from Yoshiharu Matsuura, National Institute of Infectious Diseases, Tokyo, Japan), encoding firefly luciferase under the control of the composite promoter, CAG. CAG comprises the chicken β-actin promoter and the cytomegalovirus immediate early enhancer.
TrkA-targeting gene delivery complexes were tested for transfection efficiency in vitro in PC12 (TrkA and p75^NTR positive) cells and COS7 (neurotrophin receptor negative) cells. The cells were grown to 50–70% confluency in microplate wells (24-, 48-, or 96-well plates). The gene delivery complexes were prepared according to specifications presented for each example. Transfection was accomplished by replacing the serum-enriched medium with half the usual volume of reduced-serum medium, Opti-MEM (Invitrogen), containing the gene delivery complexes. Where specifically mentioned, 100 μM of chloroquine was also added to help the complexes escape from endosomes. After four hours of incubation, the cells were restored to the normal medium volume and serum concentration, either by topping up with medium containing twice the usual serum concentration (RPMI-1640 with 20% FBS and 10% horse serum for PC12) or by completely replacing the medium.
One to two days after transfection, the cell culture medium was removed and the cells were rinsed in phosphate-buffered saline (PBS). Enough Reporter Lysis Buffer (Promega, Wisconsin, Md., USA) to cover the bottom surface was added to each well (50 μl/well for 48-well plates). After one freeze-thaw cycle, the lysates were tested for luciferase activity using the Luciferase Assay System (Promega) and a single-tube luminometer (Berthold Lumat L B 9507, Bad Wildbad, Germany). The total protein concentration of each lysate was determined using the DC Protein assay (Bio-Rad, Hercules, Calif., USA). The results were expressed in relative light units (RLU) per milligram of total protein.

[2] = tested on: dorsal root ganglia (DRG); assay: Gene delivery in vivo, intrathecal injection, dorsal root ganglia; parameters: species or system rat; conditions: 3 days
From the text: In vivo gene delivery was studied by intrathecal injections of adult Wistar rats (8 weeks old, 180–200 g). The rats were anesthetized by intraperitoneal injection of sodium pentobarbital. After the skin around L4–L5 was exposed, the gene delivery complex was slowly injected into the subarachnoid space using a syringe. A slight tail movement accompanied correct placement of the needle. After injection, the syringe was left in place for five minutes to limit diffusion caused by backflow pressure. Multiple injections were sometimes required to deliver the full volume of the complex. After injection, the skin was closed with surgical clips and the animals were kept warm until they recovered. […] The lumbar segment of the spinal cord and the lumbar dorsal root ganglia were excised. The tissues were homogenized in 100–400 μl of Reporter Lysis Buffer (Promega) depending on size and subjected to three freeze-thaw cycles. The lysates were centrifuged at 14000 g for 5 min at 4° C. The supernatant was tested for luciferase activity using the Luciferase Assay System (Promega) in a single-tube luminometer (Berthold Lumat LB 9507). The readings were normalized by the total protein content of the lysates, as measured by the DC Protein assay (Bio-Rad).

Erk1 and Erk2 = assay: Phospho-Erk1/Erk2 (p44/p42 MAPK) immunoblot in PC12 cells; type: cell-based, rat
Description: Immunoblotting experiments were conducted to test whether the chimeric polypeptides could, like NGF, induce autophosphorylation of TrkA and activation of its signal transduction pathways. PC12 cells were seeded in 6-well plates at a density of 2×10^6 cells/well and cultured in RPMI 1640 containing 0.5% FBS and 0.25% horse serum for 2 days. The low serum concentrations were necessary to reduce the basal levels of phosphorylation. The medium was refreshed two hours before beginning treatment. The cells were incubated with the polypeptides or NGF in serum-free medium for 15–20 min. The cells were then washed in PBS, lysed, and sonicated. The cell lysates were resolved by SDS-PAGE and transferred to a nitrocellulose membrane for immunoblotting. The primary antibodies used include Phospho-TrkA (Tyr490) antibody, Phospho-p44/p42 MAPK (Thr202/Tyr204) monoclonal antibody, and Phospho-Akt (Ser473) monoclonal antibody, all obtained from Cell Signaling Technology (Beverly, Mass., USA). Colorimetric detection was performed by standard techniques after using horse-radish peroxidase-conjugated secondary antibodies. In some experiments, TrkA tyrosine kinase inhibitors K-252a or AG879 (both from Calbiochem, La Jolla, Calif., USA) were used. In these cases, PC12 cells were incubated with 100 nM K-252a or 10 μM AG879 before addition of polypeptides or NGF.

primary cortical neurons = assay: Gene delivery to primary cultures of cortical neurons; type: cell-based, rat
Description: Primary cultures of neurons were established from the cortices of embryonic Wistar rats at gestational day 20. Cortices freed of meninges were dissected and individual cells were dispersed mechanically by trituration of minced tissue in 3 ml DMEM medium supplemented with 2% FBS. The suspension was allowed to settle in a centrifuge tube. The cells in the supernatant were collected by centrifugation and resuspended gently in DMEM with 10% FBS. Viability of the cells was assessed prior to plating using trypan blue. Cells were plated onto microplates pre-coated with poly-L-lysine/laminin at a density of 7.5×10^5 viable cells/cm^2. After a two-hour incubation period to allow neurons to attach, the medium and unattached cells were removed and replaced by serum-free DMEM/F12 medium with 1% N2 supplement (Invitrogen, Carlsbad, Calif., USA). The cell were then incubated at 37° C. in 5% CO2 in a humidified incubator. After 2–5 days of culture, the neuron cells were used for transfection experiments. Gene delivery complexes were also tested on primary cultures of cortical neurons and glial cells in a similar fashion. […] Four hours later, an equal volume of DMEM-F12/N2 was added. One to two days after transfection, the cell culture medium was removed and the cells were rinsed in phosphate-buffered saline (PBS). Enough Reporter Lysis Buffer (Promega, Wisconsin, Md., USA) to cover the bottom surface was added to each well (50 μl/well for 48-well plates). After one freeze-thaw cycle, the lysates were tested for luciferase activity using the Luciferase Assay System (Promega) and a single-tube luminometer (Berthold Lumat L B 9507, Bad Wildbad, Germany). The total protein concentration of each lysate was determined using the DC Protein assay (Bio-Rad, Hercules, Calif., USA). The results were expressed in relative light units (RLU) per milligram of total protein.

Molecule	gene delivery at N/P ratio of 1 (in words) ([1]; 0.3 nmol peptide with 1 μg pCAGluc, 100 μM chloroquine)	transfection efficiency relative to a mixture of NL4 and 10K peptides ([1]; 1.5 nmol peptide per μg DNA (N/P ratio of 5), 100 μM chloroquine, 24 h)	dose-response of transfection efficiency with increasing amount of peptide ([1]; 1 μg pCAGluc/well, 100 μM chloroquine)	luciferase gene expression in DRG relative to PEI600/pCAGluc/10K ([2]; 3 μg pCAGluc, PEI600 N/P 5, peptide N/P 5, intralumbar)	activation (phosphorylation) of Erk 1 and Erk 2 (Erk1 and Erk2; 5 μM peptide, 20 min)	gene transfer efficiency relative to the non-targeted control (10K) (primary cortical neurons; peptide/DNA 0.75 nmol/μg (N/P ratio of 2.5), chloroquine)	transfection efficiency of complexes of polypeptide and DNA alone ([1]; no polycation)	transgene expression relative to PEI600 alone ([1]; triple complexes with PEI600, highest amount of SPKR4NL1-2 tested)	transfection efficiency relative to PLL without SPKR4NL1-2 ([1]; triple complexes with poly-L-lysine (MW 1000), chloroquine, optimal amount of SPKR4NL1-2)	transgene expression in lumbar DRG relative to PEI600/pCAGluc control ([2]; 4 μg pCAGluc, PEI600 N/P 5, 32 nmol peptide, intrathecal)	Erk1 and Erk2 activation compared with (SPKR)4 control (Erk1 and Erk2; 1–8 μM, 15 min)	effectiveness of triple complexes relative to (SPKR)4 triple complexes (primary cortical neurons; 0.25 μg/well pCAGluc, PEI600, 24 h)
CTTTHTFVKALTMDGKQAAWRFIRIDTACKKKKKKKKKK (CTTTHTFVKALTMDGKQAAWRFIRIDTACKKKKKKKKKK; disulfide 1-29) [NL4-10K]	modest gene delivery	110 times	increased markedly	twice as high	induced activation	22 fold						
B1							relatively weak transfection efficiencies	5000 fold	1000 times	nine times	higher level of Erk1 and Erk2 activation	nine times
